Experimental data as given in patent US20150073033A1, “BIOMARKERS FOR CANCER CHARACTERIZATION AND TREATMENT” (Board of Regents, The University of Texas System, priority 2011, published 2015).

Assays:
Type in all cases: cell-based, human
NF-κB = assay: TNFα-induced, NF-κB-dependent IκBα promoter luciferase reporter; details: U87/EGFR cells; NF-κB activation inhibitor II 7 μM 30 min before TNFα 10 ng/mL 8 h
Method: FIG. 63: PKC, NF-κB, PI3-K, and CK2 are inhibited by their inhibitors. A, B: U87/EGFR cells were treated with Bis-I (2 μM) (A) or Go6976 (2 μM) (B) for 30 min before 12-O-tetradecanoylphorbol-13-acetate (TPA) ([…]) for 8 h. Immunoblotting analyses were performed with the indicated antibodies. C: U87/EGFR cells transiently expressing a luciferase reporter vector containing the IκBα promoter were pretreated with or without NF-κB activation inhibitor II (7 μM) for 30 min before TNFα (10 ng/mL) for 8 h. The relative levels of luciferase activity were normalized to the levels of untreated cells and to the levels of luciferase activity of the Renilla control plasmid. Data represent the mean±standard deviation of three independent experiments. […] Immunoblotting analyses were performed with the indicated antibodies.
The luciferase reporter vector pGL3-promoter containing either the WT or a mutated PKM promoter fragment or a luciferase reporter vector containing the IκBα promoter was transfected into U87/EGFR cells, RelA+/+, or RelA−/− fibroblasts seeded in 24-well plates at 1.5×10^4 cells/well. Twelve hours after transfection, the medium was replaced with 0.1% serum for another 12-24 h, and EGF (100 ng/mL) was added 12 h before harvesting. […] cell extract were used for measuring luciferase activity. […]

PKM2 expression = assay: EGF-induced PKM2 upregulation, immunoblotting; details: U87/EGFR cells; pretreatment before EGF 100 ng/mL 12 h; AG1478 1 μM, cycloheximide 200 μg/mL, Bis-I 2 μM, Go6976 2 μM, NF-κB activation inhibitor II 7 μM, AKT inhibitor 10 μM, TBB 50 μM, U73122 2 μM
Method: FIG. 56: EGFR activation results in upregulation of PKM2 expression. A-D: Immunoblotting analyses were performed with or without the indicated antibodies. A: The indicated cell lines were treated with EGF (100 ng/mL) for 12 h. B: U87 cells were stably transfected with plasmids expressing EGFR or EGFRvIII. […] D: U87/EGFR cells were pretreated with or without cycloheximide (CHX) (200 μg/mL) for 30 min before EGF (100 ng/mL) treatment for 12 h. […] The relative mRNA levels of PKM2 and PKM1 were normalized to the levels of untreated cells and β-actin mRNA. Data represent the mean±SD of three independent experiments.
FIG. 57: EGF increases PKM2 expression in a PKC- and NF-κB-dependent manner. A-D, H: Immunoblotting analyses were performed with the indicated antibodies. […] ChIP assay was performed with an anti-RelA antibody for immunoprecipitation, followed by PCR with PKM promoter-specific primers. F: An oligonucleotide containing the putative WT or mutated NF-κB binding sequence was labeled using [γ-^32P] ATP and T4 polynucleotide kinase. […] Samples were subjected to 5% polyacrylamide gel electrophoresis, and the dried gel was exposed to x-ray film. […] The relative levels of luciferase activity were normalized to the levels of untreated cells and to the levels of luciferase activity of the Renilla control plasmid. Data represent the mean±standard deviation of three independent experiments.
(§1) FIG. 58: PKCε downstream from PLCγ1, rather than TAK1, activates IKKβ and subsequently increases PKM2 expression. […] B: U87/EGFR cells were treated with TNFα (10 ng/mL) for the indicated time. C: U87/EGFR cells were treated with or without EGF (100 ng/mL) or TNFα (10 ng/mL) for 4 h. […] HIF1α was immunodepleted from the cell lysates by incubation with an anti-HIF1α antibody, which was followed by a ChIP assay with an anti-FLAG antibody for immunoprecipitation of FLAG-RelA and PCR analysis with PKM promoter-specific primers. […] F: 293T cells were transiently transfected with constitutively active (+) or kinase-dead (−) PKC mutants. […] H, I: 293T cells were transiently transfected with the indicated plasmids.

PTBP1 = PTBP1 protein expression upon EGF stimulation; details: U251 cells; NF-κB activation inhibitor II 7 μM 30 min before EGF 100 ng/mL 8 h
Method: FIG. 64: EGF increases PKM2 expression in a RelA- and PTBP1-dependent manner. […] Data represent the mean±standard deviation of three independent experiments. […] Immunoblotting analyses were performed with the indicated antibodies. C: RelA deficiency inhibits EGF-increased mRNA levels of PKM2, but not of PKM1. mRNA expression levels of PKM2 and PKM1 in RelA^+/+ and RelA^−/− fibroblasts treated with or without EGF (100 ng/mL) for 8 h were measured by real-time quantitative RT-PCR analysis. β-actin mRNA from the same cDNA library was amplified as a control. The relative mRNA levels of PKM2 (left panel) and PKM1 (right panel) were normalized to the levels of untreated cells and β-actin mRNA. Data represent the mean±SD of three independent experiments. D: PTBP1 depletion blocked EGF-induced PKM2 mRNA expression. […] The relative mRNA levels of PKM2 and PKM1 were normalized to the levels of untreated cells and β-actin mRNA. Data represent the mean±SD of three independent experiments. […] U87/EGFR cells transiently expressing a luciferase reporter vector containing the IκBα promoter were treated with or without TNFα (10 ng/mL) or EGF (100 ng/mL) for 8 h. The relative levels of luciferase activity were normalized to the levels of untreated cells and to the levels of luciferase activity of the Renilla control plasmid. Data represent the mean±standard deviation of three independent experiments.

IKKβ = assay: EGF-induced IKKβ activation, immunoblotting; details: U87/EGFR cells; U73122 2 μM 30 min before EGF 100 ng/mL 12 h
Method: as §1

Row | TNFα-induced and NF-κB-dependent IκBα promoter activation (NF-κB) | Compound | EGF-induced PKM2 upregulation/expression (PKM2 expression) | PTBP1 protein expression (PTBP1) | EGF-induced IKKβ activation (IKKβ)
1 | successfully blocked | Cc1ccc(NCCCc2ccccc2)c(N)c1 [NF-κB activation inhibitor II] | largely abrogated | not affected | 
2 |  | COc1ccc2c(c1)CC[C@@H]1[C@@H]2CC[C@]2(C)[C@@H](NCCCCCCN3C(=O)C=CC3=O)CC[C@@H]12 [U73122] | abrogated |  | abrogated
